Laboratory results as given in US20250287945A1, “COMPOSITIONS FOR FUNGAL CONTROL AND RELATED METHODS” (priority 2021, published 2025).
Several values for one entry are separate records, joined by “and”; a condition that tells them apart may be missing. Equal values may be shown once. Entries after “also recorded” stand apart in the source; their conditions may differ. Read-outs that look alike come from different tables or passages of the source.

How the values were obtained:
[1] = tested on: conidia of Fusarium proliferatum; experiment: oCelloScope live-cell imaging of fungal growth (SESA algorithm); type: cell-based
[2] = tested on: Botrytis cinarea (strain CBS 261.71); experiment: Botrytis viability colorimetric assay (PrestoBlue resazurin); type: cell-based, Botrytis cinerea; conditions: for viability decrease relative to that obtained with the positive control (fenpiclonil): sentence prints Fusarium in the Botrytis assay
[3] = tested on: Fusarium conidial suspension; experiment: Fusarium viability colorimetric assay (PrestoBlue resazurin); type: cell-based
Description: A Fusarium conidial suspension was prepared from a 7-day culture of Fusarium biomass grown on potato dextrose agar for 7 days, and quantified by hemocytometer, as described in Example 4. Solutions of fenpiclonil (Millipore Sigma, Cat. no. 36532) and of the individual peptides were prepared in 50% (w/v) ethanol in water, and tested using a PrestoBlue™ (resazurin) viability colorimetric assay as described in Example 4.
The Fusarium conidial suspension, peptide or control treatment solution, and potato dextrose broth (Alpha Biosciences, catalogue no. P16-126) were added to each well of a 96-well plate to obtain the desired treatment concentration and 1×10^6 conidia/mL in a final volume of 150 microliters per well. The plates were covered and incubated at 30° C. for 18 hours and 200 rpm. Fifteen microliters of PrestoBlue™ Cell Viability Reagent (Thermofisher Scientific, Cat no. A13262) were added to each well, and the plate was further incubated before measuring fluorescence at 590 nm emission with excitation at 560 nm using a spectrophotometer (BioTek Synergy H1 Microplate Reader, Fischer Scientific, Cat. no. 11-120-533).

[4] = tested on: Aspergillus flavus DSM 1959; experiment: Micro broth dilution assay in 96-well plates; type: cell-based; conditions: 3 days of incubation; 375 micromolar or 187.5 micromolar; preliminary
[5] = tested on: Fusarium oxysporum CBS 130311; experiment: Micro broth dilution assay in 96-well plates; type: cell-based; conditions: 3 days of incubation; 375 micromolar or 187.5 micromolar; preliminary
[6] = tested on: Cryptococcus neoformans DSM 70219; experiment: Micro broth dilution assay in 96-well plates; type: cell-based; conditions: 2 days of incubation; 375 micromolar; preliminary
[7] = tested on: Rhizomucor miehei CBS 147454; experiment: Micro broth dilution assay in 96-well plates; type: cell-based; conditions: 3 days of incubation; 375 micromolar or 187.5 micromolar; preliminary
[8] = tested on: Mucor circinelloides f. janssenii CBS 204.68; experiment: Micro broth dilution assay in 96-well plates; type: cell-based; conditions: 3 days of incubation; 375 micromolar or 187.5 micromolar; preliminary
[9] = tested on: Aspergillus fumigatus CBS 120.53; experiment: Micro broth dilution assay in 96-well plates; type: cell-based; conditions: 3 days of incubation; 375 micromolar or 187.5 micromolar; preliminary
[10] = 375 micromolar, four replicates

Row | Sequence | statistical comparison of normalized values with the untreated control [1] | statistical significance of antifungal activity [1] | SESA value normalized against the untreated control, mean (x) ([1]; 22 hours) | Percent Inhibition (Botrytis), Mean [2, 10] [%] | Percent Inhibition (Fusarium), Experiment 5, Mean [3] [%] | Fusarium cell viability versus untreated / 50% ethanol carrier [3] | Percent Inhibition (Fusarium), Experiment 4, Mean [3] [%] | also measured
1 | GWHWLQLKPGQPMY (listed as Saccharomyces cerevisiae) [SEQ ID NO: 2187, Saccharomyces cerevisiae alpha pheromone with N-terminal glycine] | significantly lower than the untreated control | statistically significant antifungal activity | 0.519 and 0.367 | 66.96 | 66.96 |  |  | 
2 | WCGRPGQPC (REGION 1..9: note = Botrytis spp.) [SEQ ID NO: 2183, Botrytis cinerea alpha pheromone] |  |  | 1.540 and 1.743 | −22.63 | 42.81 | decreasing Fusarium cell viability; also recorded: decreased Fusarium cell viability; also recorded: less pronounced | 46.67 | inhibition of growth / growth pattern [4]: No inhibition of growth; inhibition of growth / growth pattern [5]: No inhibition of growth; growth / growth pattern [6]: reduced growth; inhibition of growth / growth pattern [7]: No inhibition of growth; inhibition of growth / growth pattern [8]: No inhibition of growth; inhibition of growth / growth pattern [9]: No inhibition of growth
3 | WCTWKGQPCW [SEQ ID NO: 2182] |  |  |  |  | 28.39 | decreasing Fusarium cell viability; also recorded: decreased Fusarium cell viability; also recorded: less pronounced | 47.78 | SESA value normalized against the untreated control, mean (x) [1]: 1.554 and 1.510; Botrytis cell viability versus untreated / 50% ethanol carrier [2]: decreased Botrytis cell viability; Percent Inhibition (Botrytis), Mean [2]: 8.56%
4 | WHWLQLKPGQPMY (listed as Saccharomyces cerevisiae) [SEQ ID NO: 2184, Saccharomyces cerevisiae alpha pheromone] | significantly lower than the untreated control | statistically significant antifungal activity |  | 45.14 | 62.01 |  | 66.33 | inhibition of growth / growth pattern [4]: No inhibition of growth; inhibition of growth / growth pattern [5]: No inhibition of growth; growth / growth pattern [6]: reduced growth; inhibition of growth / growth pattern [7]: No inhibition of growth; Botrytis cell viability versus untreated / 50% ethanol carrier ([2]; 375 micromolar): decreased Botrytis cell viability; viability decrease relative to that obtained with the positive control (fenpiclonil) ([2]; 375 micromolar): roughly about two-thirds of the viability decrease obtained using the positive control; inhibition of growth / growth pattern [8]: No inhibition of growth; inhibition of growth / growth pattern [9]: No inhibition of growth
5 | WHWLQLKPGQPMYG (listed as Saccharomyces cerevisiae) [SEQ ID NO: 2186, Saccharomyces cerevisiae alpha pheromone with C-terminal glycine] | significantly lower than the untreated control | statistically significant antifungal activity | 1.119 and 0.742 | 47.30 | 66.45 | greatly decreased Fusarium cell viability to about the same level as did the positive control | 64.21 | 
6 | WHWLQLKPGQPMYWHWLQLKPGQPMY (listed as Saccharomyces cerevisiae) [SEQ ID NO: 2188, Saccharomyces cerevisiae alpha pheromone homodimer with no linker] |  | statistically significant antifungal activity | 0.330 and 0.351 | 71.82 | 71.82 |  |  | Botrytis cell viability versus untreated / 50% ethanol carrier ([2]; 375 micromolar): reducing Botrytis cell viability as well as did the fenpiclonil treatment; viability decrease relative to that obtained with the positive control (fenpiclonil) ([2]; 375 micromolar): roughly about two-thirds of the viability decrease obtained using the positive control
7 | WKMGQYHQLPPLW [SEQ ID NO: 2185] |  |  |  | 52.30 | 69.60 | greatly decreased Fusarium cell viability to about the same level as did the positive control | 70.84 | SESA value normalized against the untreated control, mean (x) ([1]; 250 micromolar (nominal, filtered), 22 hours, 30% potato dextrose broth): 0.850; SESA value normalized against the untreated control, mean (x) ([1]; 375 micromolar (nominal, filtered), 22 hours, 30% potato dextrose broth): 0.439; statistical comparison of normalized values with the untreated control ([1]; nominal concentration of 375 micromolar): significantly lower than the untreated control
